Article PMC5858870 (Environmental pollution (Barking, Essex : 1987), 2018)
Like-named read-outs stand apart in the source and are kept apart here.

Legend:
[1] = for Whole-body conc D 50 High / Whole-body conc D 50 Med: day 50 (after depuration), wet weight, < = reporting limit; for Whole-body conc D 50 Med: medium dose
fish = conditions: ref Kim et al. (2007); cited from earlier work
male fathead minnow = conditions: exposed to 40,000 ng/L (40 ng/mL); ref Niemuth and Klaper, 2015; cited from earlier work
carp = carp (Catla catla) exposed; ref Muthuviveganandavel et al., 2013; cited from earlier work
rainbow trout = conditions: relatively low concentrations in the range of ng/mL; ref Ashfield et al., 1998; cited from earlier work
[2] = tested on: mitochondrial respiration; conditions: ref Schnellmann et al., 1990; Shim et al., 2016; cited from earlier work
[3] = in vivo; cited from earlier work
[4] = Apparent half-life during depuration phase; conditions: whole-body, apparent first order
[5] = day 32, high dose, nominal ratio 10×
[6] = day 32, low dose, nominal ratio 0.3×
[7] = day 32, medium dose, nominal ratio 1×
[8] = Chinook salmon (Oncorhynchus tshawytscha), juvenile, in vivo, 32 d
[9] = Chinook salmon (Oncorhynchus tshawytscha), juvenile, in vivo, 50 d

WB conc. factor (lab / field) D 32 High [1, 5]	WB conc. factor (lab / field) D 32 Low [1, 6]	WB conc. factor (lab / field) D 32 Med [1, 7]	Compound	WB conc. factor (lab / field) D 50 Med ([1]; day 50, medium dose)	also measured
1.42	0.16	–	CN(C)C(=N)N=C(N)N [Metformin, reference compound]	–	Growth in male fathead minnow (male fathead minnow): reduced growth
5.59	0.31	0.38	NCCC(Oc1ccc(C(F)(F)F)cc1)c1ccccc1 (centres unmarked) [Norfluoxetine]	0.52	–
2.57	–	–	Cc1ccc(C)c(OCCCC(C)(C)C(=O)O)c1 [Gemfibrozil, reference compound]	–	–
–	–	–	CC1(C)C(C=C(Cl)Cl)C1C(=O)OC(C#N)c1cccc(Oc2ccccc2)c1 (centres unmarked) [cypermethrin]	–	Plasma enzymes ALT, AMYL, and acid phosphatase (carp): large reductions
–	–	–	nonylphenol	–	Growth in rainbow trout (rainbow trout): inhibited growth
–	–	–	O=C(O)C(F)(F)C(F)(F)C(F)(F)C(F)(F)C(F)(F)F [PFHxA]	–	Whole-body conc D 50 High [1]: 0.82 ng/g; Whole-body conc D 50 Med [1]: 0.49 ng/g
0.53	–	–	CN[C@H]1CC[C@@H](c2ccc(Cl)c(Cl)c2)c2ccccc21 [Sertraline, reference compound]	–	–
–	–	–	NS(=O)(=O)C(F)(F)C(F)(F)C(F)(F)C(F)(F)C(F)(F)C(F)(F)C(F)(F)C(F)(F)F [PFOSA]	–	WB conc. factor (lab / field) D 32 High [1, 8]: 85.9; WB conc. factor (lab / field) D 32 Low [1, 8]: 2.74; WB conc. factor (lab / field) D 32 Med [1, 8]: 4.15; WB conc. factor (lab / field) D 50 High [1, 9]: 55.9; WB conc. factor (lab / field) D 50 Med [1, 9]: 7.0; Uncoupling of mitochondrial respiration [2]: known uncouplers of mitochondrial respiration; Max WB conc field Scul [3]: 2.2 ng/g
17.1	1.67	1.03	CC[C@H]1OC(=O)[C@H](C)[C@@H](O[C@H]2C[C@@](C)(OC)[C@@H](O)[C@H](C)O2)[C@H](C)[C@@H](O[C@@H]2O[C@H](C)C[C@H](N(C)C)[C@H]2O)[C@](C)(O)C[C@@H](C)CN(C)[C@H](C)[C@@H](O)[C@]1(C)O [Azithromycin, reference compound]	1.42	–
19.5	1.15	1.12	CCOC(=O)C1=C(COCCN)NC(C)=C(C(=O)OC)C1c1ccccc1Cl (centres unmarked) [Amlodipine, reference compound]	–	–
4.00	0.29	0.21	CNCCC(Oc1ccc(C(F)(F)F)cc1)c1ccccc1 (centres unmarked) [Fluoxetine, reference compound]	0.19	–
5.37	0.67	0.43	CN(C)CCOC(c1ccccc1)c1ccccc1 [Diphen hydramine, reference compound]	–	–
1.34	–	–	O=C(Nc1ccc(Cl)cc1)Nc1ccc(Cl)c(Cl)c1 [Triclocarban]	–	–
–	–	–	Oc1cc(Cl)ccc1Oc1ccc(Cl)cc1Cl [Triclosan]	–	Uncoupling of mitochondrial respiration [2]: known uncouplers of mitochondrial respiration
–	–	–	nonylphenol diethoxylate	–	Growth in rainbow trout (rainbow trout): inhibited growth
1.41	0.19	–	CN(C)CCC=C1c2ccccc2CCc2ccccc21 [Amitriptyline, reference compound]	–	–
–	–	–	octylphenol	–	Growth in rainbow trout (rainbow trout): inhibited growth
7.39	0.64	–	Clc1ccc(COC(Cn2ccnc2)c2ccc(Cl)cc2Cl)c(Cl)c1 (centres unmarked) [Miconazole, reference compound]	–	–

Compound	WB conc. factor (lab / field) D 32 High [1, 5]	WB conc. factor (lab / field) D 32 Low [1, 6]	WB conc. factor (lab / field) D 32 Med [1, 7]	WB conc. factor (lab / field) D 50 Med ([1]; day 50, medium dose)	also measured
COc1ccc([C@@H]2Sc3ccccc3N(CCN(C)C)C(=O)[C@@H]2OC(C)=O)cc1 [Diltiazem, reference compound]	63.8	10.7	6.56	2.37	96h LC50 (fish): 15 µg/mL
CNCCN1C(=O)[C@H](OC(C)=O)[C@H](c2ccc(OC)cc2)Sc2ccccc21 [Desmethyl-diltiazem]	108	4.67	9.00	9.6	Whole-body conc D 50 High [1]: 119 ng/g; Whole-body conc D 50 Med [1]: 14.4 ng/g
O=C(O)C(F)(F)C(F)(F)C(F)(F)C(F)(F)C(F)(F)C(F)(F)C(F)(F)C(F)(F)C(F)(F)F [PFDA]	39.9	1.68	2.76	2.63	Whole-body conc D 50 High [1]: 14.4 ng/g; Whole-body conc D 50 Med [1]: 2.05 ng/g; Half life High [4]: 16.2 days; Half life Med ([4]; medium dose): 262 days
O=S(=O)(O)C(F)(F)C(F)(F)C(F)(F)C(F)(F)C(F)(F)C(F)(F)C(F)(F)C(F)(F)F [PFOS]	4.01	0.17	0.22	0.34	Whole-body conc D 50 High [1]: 123 ng/g; Whole-body conc D 50 Med [1]: 11.6 ng/g; Half life High [4]: 134 days
